From paper PMC4104781 (Journal of controlled release : official journal of the …, 2013) come the findings set out here.

The format of data set [1] is physicochemical.
Data set [2] is described as follows: TPT lactone-carboxylate interconversion. The format is physicochemical. As to conditions: 37 °C, aqueous buffers pH 5.92-7.67, fit of kinetic interconversion model.
The next data set in a line: Spectrometric. The format is physicochemical. The conditions noted are these: aqueous buffer solutions at various pH, pH 3.5.
[3] abbreviates: DSPC/DSPE-PEG2K bilayer, model fit of release profiles.
The mark [4] stands for this setting: DSPC/DSPE-PEG2K liposomes, 38.7 ± 0.1 °C, model fit over pH 3.35-7.67.

SMILES strings stand for the structures.

The pKa is the pH at which an ionisable group is half protonated. With `CC[C@@]1(O)C(=O)OCc2c1cc1n(c2=O)Cc2cc3c(CN(C)C)c(O)ccc3nc2-1` [TPT, topotecan], in data set [1] (setting [3]), the “binding to the phospholipid bilayer, anionic carboxylate form (Ca)” value is “negligible binding”; the “binding to the phospholipid bilayer, zwitterionic lactone (Ln)” value is recorded as “negligible binding”; the “membrane partition coefficient, lactone species with unionized phenol (Lp)” value worked out at 61.7 ± 5.9. Besides, in data set [1] (setting [4]), the “bilayer transport of the anionic carboxylate form (Ca)” value is reported as “impermeable”; the “transport rate constant, cationic lactone species (Lp)” value worked out at 0.51 ± 0.07 h⁻¹; the “transport rate constant, ring-opened carboxylate zwitterion (Cn)” value was 5.7 ± 0.5 h⁻¹; the “transport rate constant, zwitterionic lactone (Ln)” value is 33.9 ± 4.6 h⁻¹. Further, in data set [2], the “base-catalyzed ring-closing rate constant (kc,OH)” value is recorded as 7.4 ± 0.3 × 10^8 mol^−1hr^−1 and the “carboxylic acid/lactone equilibrium constant (K0)” value is 1.98 ± 0.07 × 10^−3. Further, the pKa in “Spectrometric” stood at 6.56 ± 0.12.
